Test results as given in patent publication US10669290B2, “Beta-lactamase inhibitors” (priority 2012, dated 2020).

Assays:
Assay type in all cases: cell-based
[1] = test system: S. aureus MSSA-7 PC-1; test: Broth microdilution MIC, S. aureus MSSA-7; details: Staphylococcus aureus, fixed piperacillin 4 μg/mL, CAMHB, 16-20 hours 37° C., read-out: MIC of exemplary compounds in presence of fixed β-lactams, Fixed Pip, S. aureus MSSA-7 PC-1
Description: (§1) To determine the ability of test compounds to potentiate the inhibition of the growth of bacterial strains that produce beta-lactamase enzymes, classic cell based broth microdilution MIC assays were employed. Six bacteria strains producing beta-lactamase enzymes were used: E. coli expressing the Class A Extended Spectrum Beta-Lactamase (ESBL) CTX-M-15, E. cloacae expressing the Class C P99, K. pneumoniae expressing the Class A carbapenemase KPC-2, P. aeruginosa expressing the Class B carbapenemase VIM-2, K. pneumoniae expressing the class A carbapenemase KPC-2 and the class B carbapenemase VIM-4, and S. aureus producing the Class A penicillinase PC-1. The assay was conducted in Cation Adjusted Mueller Hinton Broth (CAMHB, BD #212322, BD Diagnostic Systems, Sparks, Md.). Bacteria strains were grown for 3-5 hours in CAMBH broth. Test compounds were added to a microtiter plate in 2-fold serial dilutions in CAMHB in a final concentration range of 32 μg/mL to 0.25 μg/ml. An overlay of CAMHB containing a Beta-lactam was added to the compounds at a final static concentration of 4 μg/ml. […] In addition to the titration of test compounds the MICs of a panel of control beta-lactams is also tested to ensure the strains are behaving consistently from test to test. Once the test compound and antibiotics are added the plates can be inoculated according to CLSI broth microdilution method. After inoculation the plates are incubated for 16-20 hours at 37° C. then the Minimal Inhibitory Concentration (MIC) of the test compound is determined visually.
(§2) Using the methodology described above in EXAMPLE III, exemplary compounds for Formula I or Formula Ia were evaluated for their ability to inhibit the growth of β-lactamase producing bacteria in the presence of a β-lactam antibiotic.

[2] = test system: K.P. 156319 KPC-3; test: Broth microdilution MIC, K. pneumoniae 156319; details: Klebsiella pneumoniae; fixed meropenem 4 μg/mL, CAMHB, 16-20 hours 37° C.; read-out: MIC of exemplary compounds in presence of fixed β-lactams, Fixed Mero, K.P. 156319 KPC-3
[3] = test system: P. aerug. Ps296 VIM-2; test: Broth microdilution MIC, P. aeruginosa Ps296; details: Pseudomonas aeruginosa; fixed meropenem 4 μg/mL, CAMHB, 16-20 hours 37° C.; read-out: MIC of exemplary compounds in presence of fixed β-lactams, Fixed Mero, P. aerug. Ps296 VIM-2
Description: as §1, §2

[4] = test system: E. coli ESBL4 CTX-M-15; test: Broth microdilution MIC, E. coli ESBL4; details: Escherichia coli, ESBL4CTXM15; fixed ceftazidime 4 μg/mL, CAMHB, 16-20 hours 37° C.; read-out: MIC of exemplary compounds in presence of fixed β-lactams, Fixed CAZ, E. coli ESBL4 CTX-M-15
Description: as §1, §2

[5] = test system: K.P. A-1797 KPC-2 VIM-4; test: Broth microdilution MIC, K. pneumoniae A-1797; details: Klebsiella pneumoniae; fixed meropenem 4 μg/mL, CAMHB, 16-20 hours 37° C.; read-out: MIC of exemplary compounds in presence of fixed β-lactams, Fixed Mero, K.P. A-1797 KPC-2 VIM-4
Description: as §1, §2

[6] = test system: E. cl 144200 p99 AmpC; test: Broth microdilution MIC, E. cloacae 144200; details: Enterobacter cloacae; fixed ceftazidime 4 μg/mL, CAMHB, 16-20 hours 37° C.; read-out: MIC of exemplary compounds in presence of fixed β-lactams, Fixed CAZ, E. cl 144200 p99 AmpC
Description: as §1, §2

Row | SMILES | MIC [1] | MIC [2] | MIC [3] | MIC [4] | MIC [5] | MIC [6]
1 | CN(C)C[C@H]1CC[C@H](CC(=O)N(C)[C@H]2Cc3cccc(C(=O)O)c3OB2O)CC1 [Example 8, (R)-3-(2-(trans-4-((dimethylamino)methyl)cyclohexyl)-N-methylacetamido)-2-hydroxy-3,4-dihydro-2H-benzo[e][1,2]oxaborinine-8-carboxylic acid] | < 4 µg/mL | 8 to 32 µg/mL | 8 to 32 µg/mL | < 4 µg/mL | > 32 µg/mL | < 4 µg/mL
2 | N=C(N)N[C@H]1CC[C@H](CC(=O)N[C@H]2Cc3cccc(C(=O)O)c3OB2O)CC1 [Example 9, (R)-3-(2-(trans-4-guanidinocyclohexyl)acetamido)-2-hydroxy-3,4-dihydro-2H-benzo[e][1,2]oxaborinine-8-carboxylic acid] | < 4 µg/mL | < 4 µg/mL | 8 to 32 µg/mL | < 4 µg/mL | 8 to 32 µg/mL | < 4 µg/mL
3 | NCCNC[C@H]1CC[C@H](CC(=O)N[C@H]2Cc3cccc(C(=O)O)c3OB2O)CC1 [Example 10, (R)-3-(2-(trans-4-((2-aminoethylamino)methyl)cyclohexyl)acetamido)-2-hydroxy-3,4-dihydro-2H-benzo[e][1,2]oxaborinine-8-carboxylic acid] | < 4 µg/mL | < 4 µg/mL | 8 to 32 µg/mL | < 4 µg/mL | < 4 µg/mL | < 4 µg/mL
4 | NC[C@H](N)C(=O)N[C@H]1CC[C@H](CC(=O)N[C@H]2Cc3cccc(C(=O)O)c3OB2O)CC1 [Example 13, (R)-3-(2-(trans-4-((S)-2,3-diaminopropanamido)cyclohexyl)acetamido)-2-hydroxy-3,4-dihydro-2H-benzo[e][1,2]oxaborinine-8-carboxylic acid] | < 4 µg/mL | 8 to 32 µg/mL | < 4 µg/mL | < 4 µg/mL | 8 to 32 µg/mL | < 4 µg/mL
5 | CN(C)[C@H]1CC[C@H](CC(=O)N[C@H]2Cc3cccc(C(=O)O)c3OB2O)CC1 [Example 14, (R)-3-(2-(trans-4-(dimethylamino)cyclohexyl)acetamido)-2-hydroxy-3,4-dihydro-2H-benzo[e][1,2]oxaborinine-8-carboxylic acid] | < 4 µg/mL | < 4 µg/mL | > 32 µg/mL | < 4 µg/mL | 8 to 32 µg/mL | < 4 µg/mL
6 | NCCN[C@H]1CC[C@H](CC(=O)N[C@H]2Cc3cccc(C(=O)O)c3OB2O)CC1 [Example 15, (R)-3-(2-(trans-4-(2-aminoethylamino)cyclohexyl)acetamido)-2-hydroxy-3,4-dihydro-2H-benzo[e][1,2]oxaborinine-8-carboxylic acid] | < 4 µg/mL | < 4 µg/mL | < 4 µg/mL | < 4 µg/mL | < 4 µg/mL | < 4 µg/mL
7 | O=C(C[C@H]1CC[C@H](N2CCNCC2)CC1)N[C@H]1Cc2cccc(C(=O)O)c2OB1O [Example 16, (R)-2-hydroxy-3-(2-(trans-4-(piperazin-1-yl)cyclohexyl)acetamido)-3,4-dihydro-2H-benzo[e][1,2]oxaborinine-8-carboxylic acid] | < 4 µg/mL | < 4 µg/mL | 8 to 32 µg/mL | < 4 µg/mL | > 32 µg/mL | < 4 µg/mL
8 | O=C(C[C@H]1CC[C@@H](N2CCNCC2)CC1)N[C@H]1Cc2cccc(C(=O)O)c2OB1O [Example 17, (R)-2-hydroxy-3-(2-(cis-4-(piperazin-1-yl)cyclohexyl)acetamido)-3,4-dihydro-2H-benzo[e][1,2]oxaborinine-8-carboxylic acid] | < 4 µg/mL | < 4 µg/mL | > 32 µg/mL | < 4 µg/mL | > 32 µg/mL | < 4 µg/mL
9 | N[C@H]1CC[C@H](CCC(=O)N[C@H]2Cc3cccc(C(=O)O)c3OB2O)CC1 [Example 21, (R)-3-(3-(trans-4-aminocyclohexyl)propanamido)-2-hydroxy-3,4-dihydro-2H-benzo[e][1,2]oxaborinine-8-carboxylic acid] | < 4 µg/mL | < 4 µg/mL | 8 to 32 µg/mL | < 4 µg/mL | > 32 µg/mL | < 4 µg/mL
10 | N=C(N)N[C@H]1CC[C@H](CCC(=O)N[C@H]2Cc3cccc(C(=O)O)c3OB2O)CC1 [Example 22, (R)-3-(3-(trans-4-guanidinocyclohexyl)propanamido)-2-hydroxy-3,4-dihydro-2H-benzo[e][1,2]oxaborinine-8-carboxylic acid] | < 4 µg/mL | < 4 µg/mL | 8 to 32 µg/mL | < 4 µg/mL | < 4 µg/mL | < 4 µg/mL
11 | CN(C)CCN(C)[C@H]1CC[C@H](CC(=O)N[C@H]2Cc3cccc(C(=O)O)c3OB2O)CC1 [Example 23, (R)-3-(2-(trans-4-((2-(dimethylamino)ethyl)(methyl)amino)cyclohexyl)acetamido)-2-hydroxy-3,4-dihydro-2H-benzo[e][1,2]oxaborinine-8-carboxylic acid] | < 4 µg/mL | < 4 µg/mL | > 32 µg/mL | < 4 µg/mL | > 32 µg/mL | < 4 µg/mL
12 | N=C(N)NCCN[C@H]1CC[C@H](CC(=O)N[C@H]2Cc3cccc(C(=O)O)c3OB2O)CC1 [Example 25, (R)-3-(2-(trans-4-(2-guanidinoethylamino)cyclohexyl)acetamido)-2-hydroxy-3,4-dihydro-2H-benzo[e][1,2]oxaborinine-8-carboxylic acid] | < 4 µg/mL | < 4 µg/mL | < 4 µg/mL | < 4 µg/mL | < 4 µg/mL | < 4 µg/mL
13 | O=C(C[C@H]1CC[C@H](NCCO)CC1)N[C@H]1Cc2cccc(C(=O)O)c2OB1O [Example 26, (R)-2-hydroxy-3-(2-(trans-4-(2-hydroxyethylamino)cyclohexyl)acetamido)-3,4-dihydro-2H-benzo[e][1,2]oxaborinine-8-carboxylic acid] | < 4 µg/mL | < 4 µg/mL | < 4 µg/mL | < 4 µg/mL | < 4 µg/mL | < 4 µg/mL
14 | O=C(C[C@H]1CC[C@H](NCc2cccnc2)CC1)N[C@H]1Cc2cccc(C(=O)O)c2OB1O [Example 27, (R)-2-hydroxy-3-(2-(trans-4-(pyridin-3-ylmethylamino)cyclohexyl)acetamido)-3,4-dihydro-2H-benzo[e][1,2]oxaborinine-8-carboxylic acid] | < 4 µg/mL | < 4 µg/mL | 8 to 32 µg/mL | < 4 µg/mL | 8 to 32 µg/mL | < 4 µg/mL
15 | O=C(O)CN[C@H]1CC[C@H](CC(=O)N[C@H]2Cc3cccc(C(=O)O)c3OB2O)CC1 [Example 28, (R)-3-(2-(trans-4-(carboxymethylamino)cyclohexyl)acetamido)-2-hydroxy-3,4-dihydro-2H-benzo[e][1,2]oxaborinine-8-carboxylic acid] | < 4 µg/mL | < 4 µg/mL | 8 to 32 µg/mL | < 4 µg/mL | > 32 µg/mL | < 4 µg/mL
16 | O=C(C[C@H]1CC[C@H](N2C=NCC2)CC1)N[C@H]1Cc2cccc(C(=O)O)c2OB1O [Example 29, (R)-3-(2-(trans-4-(4,5-dihydro-1H-imidazol-1-yl)cyclohexyl)acetamido)-2-hydroxy-3,4-dihydro-2H-benzo[e][1,2]oxaborinine-8-carboxylic acid] | < 4 µg/mL | < 4 µg/mL | 8 to 32 µg/mL | < 4 µg/mL | > 32 µg/mL | < 4 µg/mL
17 | N=CN[C@H]1CC[C@H](CC(=O)N[C@H]2Cc3cccc(C(=O)O)c3OB2O)CC1 [Example 30, (R)-3-(2-(trans-4-formimidamidocyclohexyl)acetamido)-2-hydroxy-3,4-dihydro-2H-benzo[e][1,2]oxaborinine-8-carboxylic acid] | < 4 µg/mL | < 4 µg/mL | 8 to 32 µg/mL | < 4 µg/mL | 8 to 32 µg/mL | < 4 µg/mL
